Measured values as given in the supplement of paper PMC11208160.

experiment: recombinant UMI read abundance after kanamycin selection (control-corrected) (log10(CPM+1)); higher = more efficient recombination; extreme values may be limits of the assay; sequences stand for … in AGTGCAGAGAAAATCGGCCAGTTTTCTCTGCCTGCAGTCCGCATGCCGTGGGACCCCTTGGGTTCTAACCTGTTGCCTAGATTTATGCAGCGGACTGCCTTTCTCCCAAAGTGATAAACCGG…AGGTTGGTTTCACT; site = the 11-nt donor
In short: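 Counts of recombinant UMIs were reported as log10(CPM+1). Before that, they were converted to CPM, averaged over replicates and scaled using control-derived factors. They came from PCR across the donor–target junction after Escherichia coli carrying the pair library and target plasmid was plated on IPTG (0.07 mM) plus kanamycin, or unselected, in two replicates each.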
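Further: IS621 bridge recombinase in Escherichia coli cells against a fixed T5 target plasmid.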

Sequence | recombinant UMI read abundance (log10)
AGCTTAGCATGGACCGGTTTTCCCGGTAATCCGTATTTGTT (site AGCTTAGCTAA) | 0.0106
TCCAATTCATGGACCGGTTTTCCCGGTAATCCGTATTTGCC (site TCCAAGTCTGG) | 0
GGTCCACCATGGACCGGTTTTCCCGGTAATCCGTATTTGCT (site GGTCCACCTAG) | 0
GCGCCGGCATGGACCGGTTTTCCCGGTAATCCGTATTTGTG (site GCGCCGGCTCA) | 0.015
GTTTGAACATGGACCGGTTTTCCCGGTAATCCGTATTTGGC (site GTTGGAACTGC) | 0
TGCTAGGCATGGACCGGTTTTCCCGGTAATCCGTATTTGGT (site TGCCAGGCTAC) | 0.00869
CAAGCGCCATGGACCGGTTTTCCCGGTAATCCGTATTTGTT (site CAAGCGCCTTA) | 0.663
GCGAAAGCATGGACCGGTTTTCCCGGTAATCCGTATTTGCT (site GCGAAAACTAG) | 0
TGTTCCCCATGGACCGGTTTTCCCGGTAATCCGTATTTGTA (site TGTTCCGCTTA) | 0.0259
CATTCGACATGGACCGGTTTTCCCGGTAATCCGTATTTGCG (site CATTCGACTCG) | 0.32
ACTAGGACATGGACCGGTTTTCCCGGTAATCCGTATTTGAG (site ACTAGCACTCT) | 0.00393
GGGACACCATGGACCGGTTTTCCCGGTAATCCGTATTTGCA (site GGGACACCTTG) | 0
TGTACACCATGGACCGGTTTTCCCGGTAATCCGTATTTGAC (site TGTACACCTGT) | 0
GACTGCACATGGACCGGTTTTCCCGGTAATCCGTATTTGGT (site GACTGCACTAC) | 0.857
TGGCCGGCATGGACCGGTTTTCCCGGTAATCCGTATTTGGC (site TGGCAGGCTGC) | 0
GGTTCATCATGGACCGGTTTTCCCGGTAATCCGTATTTGCC (site GGTTCATCTGG) | 1.07
CCGTCGCCATGGACCGGTTTTCCCGGTAATCCGTATTTGTC (site CCGTCGCCTGA) | 0
CACCGCCCATGGACCGGTTTTCCCGGTAATCCGTATTTGTT (site CACGGCCCTAA) | 0.0192
GTAGTGGCATGGACCGGTTTTCCCGGTAATCCGTATTTGGT (site GTAGTGGCTAC) | 1.85
TAGCCTTCATGGACCGGTTTTCCCGGTAATCCGTATTTGGT (site TATCCTTCTAC) | 0.379
CCACACACATGGACCGGTTTTCCCGGTAATCCGTATTTGTA (site CCTCACACTTA) | 0.0109
CGGGGCGCATGGACCGGTTTTCCCGGTAATCCGTATTTGAA (site CGGGGCGCTTT) | 1.26
TGTTCCCCATGGACCGGTTTTCCCGGTAATCCGTATTTGCA (site TGTTCCCCTTC) | 0.0115
GCGCTCTCATGGACCGGTTTTCCCGGTAATCCGTATTTGCT (site GCGCTCTCTAG) | 2.75
GATTATACATGGACCGGTTTTCCCGGTAATCCGTATTTGCT (site GATTATTCTAG) | 0

Sequence | recombinant UMI read abundance (log10)
AACCCCGCATGGACCGGTTTTCCCGGTAATCCGTATTTGAC (site AACCCCGCTGT) | 2.32
ATTGTATCATGGACCGGTTTTCCCGGTAATCCGTATTTGTC (site ATTGTATCTGA) | 1.56
TGTTCCCCATGGACCGGTTTTCCCGGTAATCCGTATTTGTA (site TGTGCCCCTTA) | 0.013
TATTTGGCATGGACCGGTTTTCCCGGTAATCCGTATTTGCG (site TATTTGGCTCC) | 0.0115
ACCGGATCATGGACCGGTTTTCCCGGTAATCCGTATTTGCG (site ACCGGATCTCG) | 2.56
ACTAGAACATGGACCGGTTTTCCCGGTAATCCGTATTTGAG (site ACTAGCACTCT) | 0.0125
GACCAACCATGGACCGGTTTTCCCGGTAATCCGTATTTGGT (site GACAAACCTAC) | 0
GTCGCGTCATGGACCGGTTTTCCCGGTAATCCGTATTTGGA (site GTCGCGTCTTC) | 1.24
GGACTGGCATGGACCGGTTTTCCCGGTAATCCGTATTTGGT (site GGACTGGCTAC) | 0.371
GACTCGACATGGACCGGTTTTCCCGGTAATCCGTATTTGCA (site GACTCGACTTG) | 1.84
AATGTGACATGGACCGGTTTTCCCGGTAATCCGTATTTGAC (site AATGTGACTGT) | 2.69
CGGGCACCATGGACCGGTTTTCCCGGTAATCCGTATTTGCA (site AGGGCACCTTG) | 0.0117
GCGAAGCCATGGACCGGTTTTCCCGGTAATCCGTATTTGTG (site GCGAAGCCTCC) | 0.021
CCGGATCCATGGACCGGTTTTCCCGGTAATCCGTATTTGTT (site CCGGATCCTAA) | 0.556
TCAGGGACATGGACCGGTTTTCCCGGTAATCCGTATTTGGG (site TCAGGGACTCC) | 0.00795
CGGAACGCATGGACCGGTTTTCCCGGTAATCCGTATTTGTT (site CGGAACGCTAA) | 3.15
CGACTAACATGGACCGGTTTTCCCGGTAATCCGTATTTGGA (site CCACTAACTTC) | 0.226
AAGAAGCCATGGACCGGTTTTCCCGGTAATCCGTATTTGAC (site AAGAAGCCTGT) | 0
CATAATCCATGGACCGGTTTTCCCGGTAATCCGTATTTGTT (site CATAATCCTAA) | 0.529
GTGCATGCATGGACCGGTTTTCCCGGTAATCCGTATTTGGA (site GTGCATGCTGC) | 0
CTCGACACATGGACCGGTTTTCCCGGTAATCCGTATTTGGA (site CTCGACACTTC) | 0.942
TGCTAGGCATGGACCGGTTTTCCCGGTAATCCGTATTTGGT (site TGCTAGGCTAA) | 0.0155
CCCTACACATGGACCGGTTTTCCCGGTAATCCGTATTTGCT (site CCCTACACTAG) | 1.12
CAAGAAGCATGGACCGGTTTTCCCGGTAATCCGTATTTGCT (site CAAGAAGCTAG) | 1.55
AAGCACGCATGGACCGGTTTTCCCGGTAATCCGTATTTGGG (site AAGAACGCTCC) | 0.0117

Sequence | recombinant UMI read abundance (log10)
ACCTAGTCATGGACCGGTTTTCCCGGTAATCCGTATTTGGG (site ACCTAGTCTCC) | 0.0642
CTTGTATCATGGACCGGTTTTCCCGGTAATCCGTATTTGAC (site CTGGTATCTGT) | 0
ACGGACACATGGACCGGTTTTCCCGGTAATCCGTATTTGGT (site ACGGACACTAC) | 1.82
GTTGGAACATGGACCGGTTTTCCCGGTAATCCGTATTTGGC (site GTTCGAACTGC) | 0
GTTCGATCATGGACCGGTTTTCCCGGTAATCCGTATTTGCA (site GTTCGAGCTTG) | 0.00436
CTTCGAGCATGGACCGGTTTTCCCGGTAATCCGTATTTGCA (site GTTCGAGCTTG) | 0
CGAACACCATGGACCGGTTTTCCCGGTAATCCGTATTTGCT (site CGATCATCTAG) | 0
GTATGTACATGGACCGGTTTTCCCGGTAATCCGTATTTGTA (site GTATGTACTTA) | 2.09
TATTCCCCATGGACCGGTTTTCCCGGTAATCCGTATTTGTA (site TTTTCCCCTTA) | 0.0134
CAATTCCCATGGACCGGTTTTCCCGGTAATCCGTATTTGCA (site CAATTCCCTAG) | 0
TCCAATTCATGGACCGGTTTTCCCGGTAATCCGTATTTGTC (site TCCAATTCTGG) | 0
ACTATGCCATGGACCGGTTTTCCCGGTAATCCGTATTTGTC (site ACTATGCCTGA) | 0
TGTACACCATGGACCGGTTTTCCCGGTAATCCGTATTTGAC (site TGAACACCTGT) | 0
GGGGATTCATGGACCGGTTTTCCCGGTAATCCGTATTTGAT (site GGGGATTCTAT) | 1.72
TATACTACATGGACCGGTTTTCCCGGTAATCCGTATTTGTG (site TATACTACTCA) | 0.195
GAATGGCCATGGACCGGTTTTCCCGGTAATCCGTATTTGAA (site GAATGGCCTTC) | 0
AGGAGTACATGGACCGGTTTTCCCGGTAATCCGTATTTGTC (site AGGAGTACTGA) | 2.17
CTACTCTCATGGACCGGTTTTCCCGGTAATCCGTATTTGTA (site CTTCTCTCTTA) | 1.42
TCTACACCATGGACCGGTTTTCCCGGTAATCCGTATTTGGT (site TCTACACCTAC) | 0.00817
GGTAATCCATGGACCGGTTTTCCCGGTAATCCGTATTTGTT (site CGGAATCCTAA) | 0.0139
ATCCGTCCATGGACCGGTTTTCCCGGTAATCCGTATTTGAC (site ATCCGTCCTGT) | 0.00623
AGATCAGCATGGACCGGTTTTCCCGGTAATCCGTATTTGCT (site AGATCAGCTAG) | 2.68
CACTTGGCATGGACCGGTTTTCCCGGTAATCCGTATTTGCA (site CACTTGGCTTG) | 0.498
TAGTAAGCATGGACCGGTTTTCCCGGTAATCCGTATTTGTA (site TAGTAAGCTTA) | 2.8
CCCATACCATGGACCGGTTTTCCCGGTAATCCGTATTTGTG (site CCCATACCTCA) | 0.0125
